Results as given in ChEMBL document CHEMBL2010711, “Synthesis and comparative evaluation of 4-oxa- and 4-aza-podophyllotoxins as antiproliferative microtubule destabilizing agents” (Bioorg Med Chem Lett, 2012).

Key:
Assay type in all cases: functional
MDA-MB-231 = experiment: Cytotoxicity against human MDA-MB-231 cells after 48 hrs by trypan blue dye exclusion assay; settings: MDA-MB-231, 48 h
Malme-3M = experiment: Cytotoxicity against human MALME-3M cells after 48 hrs by trypan blue dye exclusion assay
NCI-H460 = experiment: Cytotoxicity against human NCI-H460 cells after 48 hrs by trypan blue dye exclusion assay; settings: NCI-H460, 48 h
HCC 2998 = experiment: Cytotoxicity against human HCC2998 cells after 48 hrs by trypan blue dye exclusion assay; settings: HCC 2998, 48 h
SF-539 = experiment: Cytotoxicity against human SF539 cells after 48 hrs by trypan blue dye exclusion assay; settings: SF-539, 48 h
NCI-H226 = experiment: Cytotoxicity against human NCI-H226 cells after 48 hrs by trypan blue dye exclusion assay; settings: NCI-H226, 48 h
MCF7 = experiment: Cytotoxicity against human MCF7 cells after 48 hrs by trypan blue dye exclusion assay; settings: MCF7, 48 h
MDA-MB-435 = experiment: Cytotoxicity against human MDA-MB-435 cells after 48 hrs by trypan blue dye exclusion assay; settings: MDA-MB-435, 48 h
HCT-15 = experiment: Cytotoxicity against human HCT15 cells after 48 hrs by trypan blue dye exclusion assay; settings: HCT-15, 48 h
NCI-H322M = experiment: Cytotoxicity against human NCI-H322M cells after 48 hrs by trypan blue dye exclusion assay
MOLT-4 = experiment: Cytotoxicity against human MOLT4 cells after 48 hrs by trypan blue dye exclusion assay; settings: MOLT-4, 48 h
[1] = Cytotoxicity against human Hs 578T cells after 48 hrs by trypan blue dye exclusion assay
LOX IMVI = experiment: Cytotoxicity against human LOXIMVI cells after 48 hrs by trypan blue dye exclusion assay
MDA-MB-468 = experiment: Cytotoxicity against human MDA-MB-468 cells after 48 hrs by trypan blue dye exclusion assay; settings: MDA-MB-468, 48 h
786-0 = experiment: Cytotoxicity against human 786-0 cells after 48 hrs by trypan blue dye exclusion assay; settings: 786-0, 48 h
NCI-H522 = experiment: Cytotoxicity against human NCI-H522 cells after 48 hrs by trypan blue dye exclusion assay; settings: NCI-H522, 48 h
HT-29 = experiment: Cytotoxicity against human HT-29 cells after 48 hrs by trypan blue dye exclusion assay; settings: HT-29, 48 h
SK-MEL-2 = experiment: Cytotoxicity against human SK-MEL-2 cells after 48 hrs by trypan blue dye exclusion assay; settings: SK-MEL-2, 48 h
COLO 205 = experiment: Cytotoxicity against human COLO205 cells after 48 hrs by trypan blue dye exclusion assay; settings: COLO 205, 48 h
HOP-62 = experiment: Cytotoxicity against human HOP62 cells after 48 hrs by trypan blue dye exclusion assay; settings: HOP-62, 48 h
RXF 393 = experiment: Cytotoxicity against human RXF393 cells after 48 hrs by trypan blue dye exclusion assay; settings: RXF 393, 48 h
NCI/ADR-RES = experiment: Cytotoxicity against human NCI/ADR-RES cells after 48 hrs by trypan blue dye exclusion assay
SK-OV-3 = experiment: Cytotoxicity against human SKOV3 cells after 48 hrs by trypan blue dye exclusion assay; settings: SK-OV-3, 48 h
SNB-19 = experiment: Cytotoxicity against human SNB19 cells after 48 hrs by trypan blue dye exclusion assay; settings: SNB-19, 48 h
OVCAR-4 = experiment: Cytotoxicity against human OVCAR4 cells after 48 hrs by trypan blue dye exclusion assay; settings: OVCAR-4, 48 h
U-251 = experiment: Cytotoxicity against human U251 cells after 48 hrs by trypan blue dye exclusion assay; settings: U-251, 48 h
KM12 = experiment: Cytotoxicity against human KM12 cells after 48 hrs by trypan blue dye exclusion assay; settings: KM12, 48 h
TK-10 = experiment: Cytotoxicity against human TK10 cells after 48 hrs by trypan blue dye exclusion assay; settings: TK-10, 48 h
A549 = experiment: Cytotoxicity against human A549 cells after 48 hrs by trypan blue dye exclusion assay; settings: A549, 48 h
PC-3 = experiment: Cytotoxicity against human PC3 cells after 48 hrs by trypan blue dye exclusion assay; settings: PC-3, 48 h
A498 = experiment: Cytotoxicity against human A498 cells after 48 hrs by trypan blue dye exclusion assay; settings: A498, 48 h
UACC-62 = experiment: Cytotoxicity against human UACC62 cells after 48 hrs by trypan blue dye exclusion assay; settings: UACC-62, 48 h
SNB-75 = experiment: Cytotoxicity against human SNB75 cells after 48 hrs by trypan blue dye exclusion assay; settings: SNB-75, 48 h
HOP-92 = experiment: Cytotoxicity against human HOP92 cells after 48 hrs by trypan blue dye exclusion assay; settings: HOP-92, 48 h
ACHN = experiment: Cytotoxicity against human ACHN cells after 48 hrs by trypan blue dye exclusion assay
IGROV-1 = experiment: Cytotoxicity against human IGROV1 cells after 48 hrs by trypan blue dye exclusion assay; settings: IGROV-1, 48 h
SW-620 = experiment: Cytotoxicity against human SW620 cells after 48 hrs by trypan blue dye exclusion assay; settings: SW-620, 48 h
CAKI-1 = experiment: Cytotoxicity against human CAKI-1 cells after 48 hrs by trypan blue dye exclusion assay; settings: CAKI-1, 48 h
EKVX = experiment: Cytotoxicity against human EKVX cells after 48 hrs by trypan blue dye exclusion assay
NCI-H23 = experiment: Cytotoxicity against human NCI-H23 cells after 48 hrs by trypan blue dye exclusion assay; settings: NCI-H23, 48 h
SR = experiment: Cytotoxicity against human SR cells after 48 hrs by trypan blue dye exclusion assay
DU-145 = experiment: Cytotoxicity against human DU145 cells after 48 hrs by trypan blue dye exclusion assay; settings: DU-145, 48 h
SK-MEL-5 = experiment: Cytotoxicity against human SK-MEL-5 cells after 48 hrs by trypan blue dye exclusion assay; settings: SK-MEL-5, 48 h
M14 = experiment: Cytotoxicity against human M14 cells after 48 hrs by trypan blue dye exclusion assay; settings: M14, 48 h
UO-31 = experiment: Cytotoxicity against human UO31 cells after 48 hrs by trypan blue dye exclusion assay; settings: UO-31, 48 h
SF-295 = experiment: Cytotoxicity against human SF295 cells after 48 hrs by trypan blue dye exclusion assay; settings: SF-295, 48 h
T47D = experiment: Cytotoxicity against human T47D cells after 48 hrs by trypan blue dye exclusion assay
CCRF-CEM = experiment: Cytotoxicity against human CCRF-CEM cells after 48 hrs by trypan blue dye exclusion assay
RPMI-8226 = experiment: Cytotoxicity against human RPMI8226 cells after 48 hrs by trypan blue dye exclusion assay; settings: RPMI-8226, 48 h
UACC-257 = experiment: Cytotoxicity against human UACC257 cells after 48 hrs by trypan blue dye exclusion assay; settings: UACC-257, 48 h
K562 = experiment: Cytotoxicity against human K562 cells after 48 hrs by trypan blue dye exclusion assay; settings: K562, 48 h
BT-549 = experiment: Cytotoxicity against human BT549 cells after 48 hrs by trypan blue dye exclusion assay; settings: BT-549, 48 h
SK-MEL-28 = experiment: Cytotoxicity against human SK-MEL-28 cells after 48 hrs by trypan blue dye exclusion assay; settings: SK-MEL-28, 48 h
OVCAR-3 = experiment: Cytotoxicity against human OVCAR3 cells after 48 hrs by trypan blue dye exclusion assay; settings: OVCAR-3, 48 h
HL-60(TB) = experiment: Cytotoxicity against human HL-60(TB) cells after 48 hrs by trypan blue dye exclusion assay; settings: HL-60, 48 h
HCT-116 = experiment: Cytotoxicity against human HCT116 cells after 48 hrs by trypan blue dye exclusion assay; settings: HCT-116, 48 h
OVCAR-8 = experiment: Cytotoxicity against human OVCAR8 cells after 48 hrs by trypan blue dye exclusion assay; settings: OVCAR-8, 48 h
SF-268 = experiment: Cytotoxicity against human SF268 cells after 48 hrs by trypan blue dye exclusion assay; settings: SF-268, 48 h
SN12C = experiment: Cytotoxicity against human SN12C cells after 48 hrs by trypan blue dye exclusion assay

SMILES: COc1cc([C@@H]2c3cc4c(cc3[C@H](O)[C@H]3COC(=O)[C@H]23)OCO4)cc(OC)c1OC [PODOFILOX]
- GI50 (MDA-MB-231): 10 nM
- GI50 (Malme-3M): 47300 nM
- GI50 (NCI-H460): 10.6 nM
- GI50 (HCC 2998): 12.3 nM
- GI50 (SF-539): 10 nM
- GI50 (NCI-H226): 10 nM
- GI50 (MCF7): 10 nM
- GI50 (MDA-MB-435): 10 nM
- GI50 (HCT-15): 13.5 nM
- GI50 (NCI-H322M): 10 nM
- GI50 (MOLT-4): 10 nM
- GI50 [1]: 10 nM
- GI50 (LOX IMVI): 10 nM
- GI50 (MDA-MB-468): 10 nM
- GI50 (786-0): 16.9 nM
- GI50 (NCI-H522): 10 nM
- GI50 (HT-29): 10 nM
- GI50 (SK-MEL-2): 14.9 nM
- GI50 (COLO 205): 10 nM
- GI50 (HOP-62): 21.1 nM
- GI50 (RXF 393): 10 nM
- GI50 (NCI/ADR-RES): 10 nM
- GI50 (SK-OV-3): 10 nM
- GI50 (SNB-19): 10 nM
- GI50 (OVCAR-4): 17.5 nM
- GI50 (U-251): 10.7 nM
- GI50 (KM12): 10 nM
- GI50 (TK-10): 30.5 nM
- GI50 (A549): 13.8 nM
- GI50 (PC-3): 10 nM
- GI50 (A498): 10 nM
- GI50 (UACC-62): 10 nM
- GI50 (SNB-75): 659 nM
- GI50 (HOP-92): 34.1 nM
- GI50 (ACHN): 10 nM
- GI50 (IGROV-1): 13.2 nM
- GI50 (SW-620): 10 nM
- GI50 (CAKI-1): 89.7 nM
- GI50 (EKVX): 10 nM
- GI50 (NCI-H23): 10 nM
- GI50 (SR): 10 nM
- GI50 (DU-145): 10 nM
- GI50 (SK-MEL-5): 10 nM
- GI50 (M14): 13.1 nM
- GI50 (UO-31): 16.6 nM
- GI50 (SF-295): 10 nM
- GI50 (T47D): 84500 nM
- GI50 (CCRF-CEM): 10 nM
- GI50 (RPMI-8226): 10 nM
- GI50 (UACC-257): 10 nM
- GI50 (K562): 215 nM
- GI50 (BT-549): 10 nM
- GI50 (SK-MEL-28): 10 nM
- GI50 (OVCAR-3): 11.3 nM
- GI50 (HL-60(TB)): 10 nM
- GI50 (HCT-116): 10 nM
- GI50 (OVCAR-8): 10 nM
- GI50 (SF-268): 10 nM
- GI50 (SN12C): 17.1 nM
